Source: article PMC8538004, “Identification of a Novel Neuropeptide S Receptor Antagonist Scaffold Based on the SHA-68 Core” (Pharmaceuticals, 2021)
Entries after “also recorded” stand apart in the source; their conditions may differ. Read-outs that look alike come from different tables or passages of the source.

How the values were obtained:
[1] = test system: NPS-mediated hyperlocomotion; assay: NPS-stimulated locomotor activity (open field); type: in vivo, C57/Bl6 mice
Experimental: Male mice between 8 and 12 weeks of age were used for all tests. C57/Bl6 were obtained from the former NCI colony maintained by Charles River. Animals were housed with ad libitum access to food and water on a 12:12 h light:dark cycle with lights on at 06:00. Experiments were conducted between the hours of 09:00 and 15:00. All experiments were approved by the Institutional Animal Care and Use Committee of the State University of New York at Buffalo (PMY09073N) and conducted in accordance with the National Institutes of Health Guide for the Care and Use of Laboratory animals.
Mice were anesthetized using ketamine (100 mg/kg) and xylazine (5 mg/kg) and were secured to a stereotaxic frame once the appropriate plane of anesthesia was reached. An incision was made in order to expose the skull. […]
Open-field testing was conducted in clear plexiglass cages measuring 40 × 40 cm^2 interfaced by a grid array of infrared beams connected to a computer system which tracked and quantified the animals’ location and movements (OMNITECH Instruments, Columbus, OH, USA). […]
Statistical analyses were performed by ANOVA with Tukey’s multiple comparisons test analysis within GraphPad Prism 8 software (GraphPad Software, San Diego, CA, USA). All results are expressed as mean values ± SEM.

[2] = Pharmacokinetic study in C57Bl6 mice; type: in vivo, C57/Bl6 mice; settings: 30 mg/kg i.p.; for Cmax: mouse, ip
Experimental: Animals were administered vehicle (1% n-methyl-2-pyrrolidone (NMP) with 0.5% Tween 80 in 0.5% carboxymethyl cellulose (CMC) in water) or compound 14b dissolved in the same vehicle (30 mg/kg, i.p.), and were euthanized at the appropriate timepoints by isoflurane overdose with decapitation. Trunk blood and brains were taken at 15, 30, 60, 120, and 240 min post-injection. Blood was collected in 5 mL tubes that had been preloaded with 0.5 M EDTA so that the final concentration would be approximately 5 mM. Blood/EDTA was centrifuged at 1000× g at 4 °C for 10 min. Plasma was collected and flash-frozen on dry ice and stored at −80 °C until analysis.
Stock solutions of 14b were prepared and diluted serially to generate standard curve and quality control spiking solutions. The concentrations in plasma and brain homogenate for 14b were 0.5, 1, 5, 10, 50, 100, 500, and 1000 ng/mL for standard curves.
Brains were weighed and homogenized at 1:5 (wt:vol) with 50:50 ethanol:water using a Geno/Grinder 2010 (SPEXSamplePrep, Metuchen, NJ, USA) twice at 1750 rpm for 30 s. Subsequently, 50 µL of plasma or brain homogenate was mixed with 150 µL of acetonitrile containing reserpine as internal standard (100 ng/mL) in a 96-well plate. The plate was shaken at 700 rpm for 3 min and then centrifuged at 4000 rpm for 10 min at 4 C. Then, 50 µL of supernatant was mixed with 50 µL of water in a new plate and analyzed by LC/MS-MS.
A SCIEX Exion AD UHPLC system (Framingham, MA) was used to inject 10 µL of the processed samples/calibration standards onto a Waters Acquity BEH C18 (2.1 mm × 100 mm, […]) column (Milford, MA). Mobile phase A consisted of 0.1% formic acid in water, and mobile phase B consisted of 0.1% formic acid in acetonitrile. […] Quantitation was achieved by multiple reaction monitoring in positive ion mode using an SCIEX 6500+ (Framingham, MA) QTRAP mass spectrometer. Compound 14b was quantitated by monitoring the transition of m/z 445.044 → 251.1, and the internal standard, reserpine, was monitored by m/z 609.300 → 194.9. […]

Question: What does the source list for `CC(C)CC1(c2ccccc2)OC(=O)C2=C1CN(C(=O)NCc1ccccc1)CC2` (single isomer, unassigned; (+)) [Compound 14b, (+) N-benzyl-3-(2-methylpropyl)-1-oxo-3-phenyl-1H,3H,4H,5H,6H,7H-furo[3,4-c]pyridine-5-carboxamide]?
Answer: Effect on NPS-mediated hyperlocomotion ([1]; 3 mg/kg i.p. pretreatment, NPS 0.3 nmol ICV, total distance first 10 min, Veh-NPS vs. 14b-NPS p = 0.0389): attenuated; also recorded: able to block; also recorded: sufficient to significantly decrease; also recorded: significantly decreased; Effect on locomotion on its own ([1]; 3 mg/kg i.p., aCSF ICV, Veh-aCSF vs. 14b-aCSF p = 0.8199): did not decrease locomotion; Clearance in plasma [2]: 288 mL/min/kg; Cmax ([2]; brain, read-out: Cmax in brain): 186 ng/mL; Cmax ([2]; plasma, read-out: Cmax in plasma): 1940 ng/mL
